From patent US12344623B2, “Thiazolopyridine derivatives as adenosine receptor antagonists” (Merck Patent GmbH, priority 2019, dated 2025)
Where two headings read alike, the source gives them in different places.

Key:
Assay type in all cases: cell-based
[1] = molecular target: T1, human A1 receptor (Homo sapiens, UniProt P30542); assay: Functional A1 receptor activity, recombinant CHO cells, cAMP (HTRF), forskolin, agonist CPA; conditions: recombinant CHO cells, forskolin, agonist CPA; read-out: Functional A1 receptor activity, CHO, cAMP, IC50
T1 construct: expressed in transfected cells; host or cells: CHO
T1 sequence (P30542 1-326): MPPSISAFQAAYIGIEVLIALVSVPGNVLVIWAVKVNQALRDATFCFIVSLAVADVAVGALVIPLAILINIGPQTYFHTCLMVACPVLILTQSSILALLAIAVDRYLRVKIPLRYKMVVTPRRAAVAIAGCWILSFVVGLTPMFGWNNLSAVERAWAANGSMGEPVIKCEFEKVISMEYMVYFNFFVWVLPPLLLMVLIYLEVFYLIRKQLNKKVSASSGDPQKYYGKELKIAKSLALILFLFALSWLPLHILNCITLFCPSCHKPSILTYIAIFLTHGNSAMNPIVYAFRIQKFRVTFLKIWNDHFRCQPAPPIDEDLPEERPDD
Description: (§1) The functional activities of human A2A, A2B, A1 and A3 receptors were determined by quantification of cAMP, being the second messenger for adenosine receptors.
(§2) For human A1 and A3 receptors, recombinant CHO cells, expressing either A1 or A3-receptor, were used. As both receptors couple to Gi proteins, the assay protocol was adapted:
(§3) Cells were seeded into 384-well plates, forskolin, test compounds and agonists (CPA for A1- and IB-MECA for A3-receptor) were added. After 30 min incubation, HTRF reagents (cAMP dynamic 2, Cis Bio) were added and the cellular cAMP levels were determined using the ENVISION (Perkin Elmer) plate reader. Obtained raw data were normalized against the inhibitor control and the neural control (DMSO) and the normalized data were fitted using GeneData software.

[2] = molecular target: T2, human A2B receptor (Homo sapiens, UniProt P29275); assay: Functional A2B receptor activity, recombinant HEK293 cells, cAMP (HTRF), agonist NECA; conditions: read-out: Functional A2B receptor activity, HEK293, cAMP, IC50
T2 construct: expressed in transfected cells; host or cells: HEK293
T2 sequence (P29275 1-332): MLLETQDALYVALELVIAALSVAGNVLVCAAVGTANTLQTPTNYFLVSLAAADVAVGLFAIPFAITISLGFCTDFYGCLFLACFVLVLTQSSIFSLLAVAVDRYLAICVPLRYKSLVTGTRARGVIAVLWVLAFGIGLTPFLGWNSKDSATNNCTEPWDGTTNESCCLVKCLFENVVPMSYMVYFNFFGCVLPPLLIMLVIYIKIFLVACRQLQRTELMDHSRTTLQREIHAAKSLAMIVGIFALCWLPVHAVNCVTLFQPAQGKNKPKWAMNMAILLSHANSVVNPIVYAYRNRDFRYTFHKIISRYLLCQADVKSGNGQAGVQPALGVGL
Description: as §1, §3

[3] = molecular target: human A2A receptor (Homo sapiens, UniProt P29274); assay: Functional A2A receptor activity, recombinant HEK293 cells, cAMP (HTRF), agonist NECA; set-up: expressed in transfected cells; host or cells: HEK293; conditions: read-out: Functional A2A receptor activity, HEK293, cAMP, IC50
Description: as §1, §3

[4] = molecular target: T3, human A3 receptor (Homo sapiens, UniProt P0DMS8); assay: Functional A3 receptor activity, recombinant CHO cells, cAMP (HTRF), forskolin, agonist IB-MECA; conditions: recombinant CHO cells, forskolin, agonist IB-MECA, read-out: Functional A3 receptor activity, CHO, cAMP, IC50
T3 construct: expressed in transfected cells; host or cells: CHO
T3 sequence (P0DMS8 1-318): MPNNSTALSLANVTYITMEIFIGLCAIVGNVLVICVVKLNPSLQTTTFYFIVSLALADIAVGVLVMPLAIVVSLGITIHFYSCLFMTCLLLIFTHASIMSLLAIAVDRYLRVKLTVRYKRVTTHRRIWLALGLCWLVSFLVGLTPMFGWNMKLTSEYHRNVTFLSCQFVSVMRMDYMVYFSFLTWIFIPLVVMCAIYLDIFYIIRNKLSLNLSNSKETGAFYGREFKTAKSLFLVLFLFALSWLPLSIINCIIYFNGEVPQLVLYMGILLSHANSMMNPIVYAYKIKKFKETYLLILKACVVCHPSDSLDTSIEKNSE
Description: as §1, §2, §3

human A2A receptor, sequence (P29274 whole entry): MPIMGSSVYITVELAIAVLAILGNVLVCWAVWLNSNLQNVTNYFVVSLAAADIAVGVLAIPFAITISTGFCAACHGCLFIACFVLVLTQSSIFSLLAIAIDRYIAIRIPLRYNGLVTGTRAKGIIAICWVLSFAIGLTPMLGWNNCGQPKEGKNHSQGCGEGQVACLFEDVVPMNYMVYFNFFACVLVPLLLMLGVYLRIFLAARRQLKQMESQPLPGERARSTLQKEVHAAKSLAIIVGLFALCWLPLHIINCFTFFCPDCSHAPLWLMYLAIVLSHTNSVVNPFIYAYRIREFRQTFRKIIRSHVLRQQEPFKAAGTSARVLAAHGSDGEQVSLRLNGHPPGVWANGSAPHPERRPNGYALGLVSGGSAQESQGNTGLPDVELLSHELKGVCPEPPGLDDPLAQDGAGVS

Compound	IC50 [1] [µM]	IC50 [2] [µM]	IC50 [3] [µM]	IC50 [4] [µM]	IC50 ([4]; cAMP) [µM]
COc1nc(F)c(N2CCOCC2)c2sc(NC(=O)C3CC3)nc12 [Compound 4, Cyclopropanecarboxylic acid (6-fluoro-4-methoxy-7-morpholin-4-yl-thiazolo[4,5-c]pyridin-2-yl)-amide]	> 1	< 0.01	< 0.01	< 1	–
COc1ncc(-c2ccc3cc[nH]c3c2)c2sc(NC(=O)N3CCC4(CCOCC4)C3)nc12 [Compound 9, N-[7-(1H-indol-6-yl)-4-methoxy-[1,3]thiazolo[4,5-c]pyridin-2-yl]-8-oxa-2-azaspiro[4.5]decane-2-carboxamide]	> 1	< 0.1	< 0.01	> 1	–
COc1nc(F)c(N2CCOCC2)c2sc(NC(=O)N3CCC4(CCOC4)C3)nc12 (stereo not shown) [Compound 16, N-[6-fluoro-4-methoxy-7-(morpholin-4-yl)-[1,3]thiazolo[4,5-c]pyridin-2-yl]-2-oxa-7-azaspiro[4.4]nonane-7-carboxamide]	> 1	< 0.1	< 0.01	> 1	–
COCCNc1ncc(C(=O)Nc2nc3c(OC)ncc(C4CCOCC4)c3s2)s1 [Compound 17, N-[4-methoxy-7-(oxan-4-yl)-[1,3]thiazolo[4,5-c]pyridin-2-yl]-2-[(2-methoxyethyl)amino]-1,3-thiazole-5-carboxamide]	< 1	< 0.01	< 0.01	> 1	–
COCCn1cc(C(=O)Nc2nc3c(OC)nc(F)c(C4CCOCC4)c3s2)cn1 [Compound 22, N-[6-fluoro-4-methoxy-7-(oxan-4-yl)-[1,3]thiazolo[4,5-c]pyridin-2-yl]-1-(2-methoxyethyl)-1H-pyrazole-4-carboxamide]	< 1	< 0.01	< 0.01	< 1	–
COc1nc(F)c(C2CCOCC2)c2sc(NC(=O)c3cnn(C)c3)nc12 [Compound 23, N-[6-fluoro-4-methoxy-7-(oxan-4-yl)-[1,3]thiazolo[4,5-c]pyridin-2-yl]-1-methyl-1H-pyrazole-4-carboxamide]	< 1	< 0.01	< 0.01	> 1	–
COc1nc(F)c(-c2ccc(F)cc2)c2sc(NC(=O)N3CCC(C)(O)CC3)nc12 [Compound 27, 4-Hydroxy-4-methyl-piperidine-1-carboxylic acid [6-fluoro-7-(4-fluoro-phenyl)-4-methoxy-thiazolo[4,5-c]pyridin-2-yl]-amide]	< 1	< 0.01	< 0.01	> 1	–
COc1ncc(-c2cnn(C[C@H]3CCCOC3)c2)c2sc(NC(=O)N3CCC4(CCOCC4)C3)nc12 [Compound 104, 8-Oxa-2-aza-spiro[4.5]decane-2-carboxylic acid (4-methoxy-7-{1-[(R)-1-(tetrahydro-pyran-3-yl)methyl]-1H-pyrazol-4-yl}-thiazolo[4,5-c]pyridin-2-yl)-amide]	–	< 0.1	< 0.01	> 1	–
COc1ncc(-c2cnn(C[C@@H]3CCCOC3)c2)c2sc(NC(=O)N3CCC4(CCOCC4)C3)nc12 [Compound 105, 8-Oxa-2-aza-spiro[4.5]decane-2-carboxylic acid (4-methoxy-7-{1-[(S)-1-(tetrahydro-pyran-3-yl)methyl]-1H-pyrazol-4-yl}-thiazolo[4,5-c]pyridin-2-yl)-amide]	–	< 0.1	< 0.01	> 1	–
COc1ncc(-c2cnn(Cc3cccnc3)c2)c2sc(NC(=O)c3ccc(C(=O)O)cc3)nc12 [Compound 115, 4-[(4-methoxy-7-{1-[(pyridin-3-yl)methyl]-1H-pyrazol-4-yl}-[1,3]thiazolo[4,5-c]pyridin-2-yl)carbamoyl]benzoic acid]	–	< 0.01	< 0.01	< 1	–
COc1ncc(C2=CCOCC2)c2sc(NC(=O)c3cn[nH]c3)nc12 [Compound 116, N-[7-(3,6-dihydro-2H-pyran-4-yl)-4-methoxy-[1,3]thiazolo[4,5-c]pyridin-2-yl]-1H-pyrazole-4-carboxamide]	–	< 0.01	< 0.01	< 1	–
COc1ncc(-c2ccccc2)c2sc(NC(=O)c3cn[nH]c3)nc12 [Compound 117, N-{4-methoxy-7-phenyl-[1,3]thiazolo[4,5-c]pyridin-2-yl}-1H-pyrazole-4-carboxamide]	–	< 0.01	< 0.01	< 1	–
COc1ncc(-c2cnn(C[C@@H]3CCCCO3)c2)c2sc(NC(=O)N3CCC4(CCOCC4)C3)nc12 [Compound 118, 8-Oxa-2-aza-spiro[4.5]decane-2-carboxylic acid (4-methoxy-7-{1-[(S)-1-(tetrahydro-pyran-2-yl)methyl]-1H-pyrazol-4-yl}-thiazolo[4,5-c]pyridin-2-yl)-amide]	–	< 0.1	< 0.01	> 1	–
COc1ncc(-c2cnn(C[C@H]3CCCCO3)c2)c2sc(NC(=O)N3CCC4(CCOCC4)C3)nc12 [Compound 119, 8-Oxa-2-aza-spiro[4.5]decane-2-carboxylic acid (4-methoxy-7-{1-[(R)-1-(tetrahydro-pyran-2-yl)methyl]-1H-pyrazol-4-yl}-thiazolo[4,5-c]pyridin-2-yl)-amide]	–	< 0.1	< 0.01	> 1	–
COc1ncc(-c2cccc(NS(C)(=O)=O)c2)c2sc(NC(=O)N3CCC4(CCOCC4)C3)nc12 [Compound 120, 8-Oxa-2-aza-spiro[4.5]decane-2-carboxylic acid [7-(3-methanesulfonylamino-phenyl)-4-methoxy-thiazolo[4,5-c]pyridin-2-yl]-amide]	> 1	–	< 0.1	> 1	–
COc1ncc(C2=CCOCC2)c2sc(NC(=O)c3ccc(C(=O)NCCN4CCC4)cc3)nc12 [Compound 139, N-(2-Azetidin-1-yl-ethyl)-N′-[7-(3,6-dihydro-2H-pyran-4-yl)-4-methoxy-thiazolo[4,5-c]pyridin-2-yl]-terephthalamide]	–	< 0.1	< 0.01	> 1	–
COc1ncc(C2=CCOCC2)c2sc(NC(=O)c3cnn(Cc4ncc[nH]4)c3)nc12 [Compound 158, 1-(1H-Imidazol-2-ylmethyl)-1H-pyrazole-4-carboxylic acid [7-(3,6-dihydro-2H-pyran-4-yl)-4-methoxy-thiazolo[4,5-c]pyridin-2-yl]-amide]	–	< 0.01	< 0.01	> 1	–
COc1ncc(-c2cnn(C(C)(C)c3ccccc3)c2)c2sc(NC(=O)N3CCC4(CCOCC4)C3)nc12 [Compound 163, 8-Oxa-2-aza-spiro[4.5]decane-2-carboxylic acid {4-methoxy-7-[1-(1-methyl-1-phenyl-ethyl)-1H-pyrazol-4-yl]-thiazolo[4,5-c]pyridin-2-yl}-amide]	–	< 0.1	< 0.01	> 1	–
COC(=O)N(C)Cc1ccc(C(=O)Nc2nc3c(OC)ncc(C4=CCOCC4)c3s2)cc1 [Compound 167, {4-[7-(3,6-Dihydro-2H-pyran-4-yl)-4-methoxy-thiazolo[4,5-c]pyridin-2-ylcarbamoyl]-benzyl}-methyl-carbamic acid methyl ester]	–	< 0.01	< 0.01	> 1	–
COc1cnc(N2CCOCC2)c2sc(NC(=O)N3CCC4(CCN(C)C4=O)CC3)nc12 [drawing 186, reference compound]	–	> 1	< 0.1	–	> 1
